Reference: patent publication US11000491B2, “Amino-aryl-benzamide compounds and methods of use thereof” (HEPANOVA, INC., priority 2017, dated 2021)
Read-outs that look alike come from different tables or passages of the source.

Columns and labels:
Type in all cases: cell-based
SREBP-2 = SREBP-2 expression in cultured primary human hepatocytes; conditions: procedure of Example 6, read-out: SREBP-2 mRNA inhibition (EC50)
How it was run: (§1)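 Primary human hepatocytes in culture exposed to a range of HPN-01 derivative concentrations; SREBP-1 and SREBP-2 mRNA expression then measured to assess inhibition.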

Huh7 cells = experiment: LD content in Huh7 cells pre-treated with insulin, Oil-Red-O staining, absorbance OD 540 nm; conditions: procedure of Example 3, read-out: LD content inhibition (EC50)
How it was run: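 Huh7 cells, mock-treated or pre-treated with 1 mM insulin, were then exposed to compound at the indicated amounts. Lipid droplets stained with Oil Red O and quantified by absorbance at OD 540 nm.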

SREBP-1 = SREBP-1 expression in cultured primary human hepatocytes; conditions: procedure of Example 6, read-out: SREBP-1 mRNA inhibition (EC50)
How it was run: as §1

[1] = Homo sapiens, Huh-7, Huh7 cells

Row | Structure (SMILES) | EC50 (SREBP-2; Homo sapiens, Hepatocyte) [µM] | EC50 (Huh7 cells; [1]) [nM] | EC50 (SREBP-1; Homo sapiens, Hepatocyte) [nM] | EC50 (SREBP-2) [µM] | EC50 (SREBP-1) [nM] | EC50 (Huh7 cells; Huh7 cells) [nM]
1 | CC(=O)Nc1c(C(N)=O)cc(-c2ccc(Cl)cc2)cc1-c1ccc(S(N)(=O)=O)cc1 [HPN-01501, 4′-acetamido-4-chloro-4″-sulfamoyl-[1,1′:3′,1″-terphenyl]-5′-carboxamide] | 8.55 | 1670 | 5040 | – | – | –
2 | NC(=O)c1cc(-c2ccc(Cl)cc2)cc(-c2ccc(S(N)(=O)=O)cc2)c1NC(=O)CO [HPN-01502, 4-chloro-4′-(2-hydroxyacetamido)-4″-sulfamoyl-[1,1′:3′,1″-terphenyl]-5′-carboxamide] | 2.3 | 790 | 1650 | – | – | –
3 | NC(=O)c1cc(-c2ccc(Cl)cc2)cc(-c2ccc(S(N)(=O)=O)cc2)c1NC(=O)C1CC1 [HPN-01503, 4-chloro-4′-(cyclopropanecarboxamido)-4″-sulfamoyl-[1,1′:3′,1″-terphenyl]-5′-carboxamide] | 6.48 | 700 | 3940 | – | – | –
4 | NCC(=O)Nc1c(C(N)=O)cc(-c2ccc(Cl)cc2)cc1-c1ccc(S(N)(=O)=O)cc1 [HPN-01504, 4′-(2-aminoacetamido)-4-chloro-4″-sulfamoyl-[1,1′:3′,1″-terphenyl]-5′-carboxamide] | 1.11 | 460 | 730 | – | – | –
5 | NC(=O)Nc1ccc(-c2cc(-c3ccc(Cl)cc3)cc(C(N)=O)c2NC(=O)CO)cc1 [HPN-01506, 4-chloro-4′-(2-hydroxyacetamido)-4″-ureido-[1,1′:3′,1″-terphenyl]-5′-carboxamide] | 17.1 | 6480 | 7310 | – | – | –
6 | NC(=O)c1cc(-c2ccc(Br)cc2)cc(-c2ccc(S(N)(=O)=O)cc2)c1NC(=O)CCO [HPN-01513, 4-bromo-4′-(3-hydroxypropanamido)-4″-sulfamoyl-[1, 1′:3′,1″-terphenyl]-5′-carboxamide] | 2.88 | 680 | 1630 | – | – | –
7 | NCCC(=O)Nc1c(C(N)=O)cc(-c2ccc(Br)cc2)cc1-c1ccc(S(N)(=O)=O)cc1 [HPN-01514, 4′-(3-aminopropanamido)-4-bromo-4″-sulfamoyl-[1,1′:3′,1″-terphenyl]-5′-carboxamide] | 5.1 | 1150 | 2830 | – | – | –
8 | NC(=O)c1cc(-c2ccc(Cl)cc2)cc(-c2ccc(S(N)(=O)=O)cc2)c1NC(=O)CCO [HPN-01516, 4-chloro-4′-(3-hydroxypropanamido)-4″-sulfamoyl-[1, 1′:3′,1″-terphenyl]-5′-carboxamide] | 2.07 | 1100 | 1910 | – | – | –
9 | NCCC(=O)Nc1c(C(N)=O)cc(-c2ccc(Cl)cc2)cc1-c1ccc(S(N)(=O)=O)cc1 [HPN-01517, 4′-(3-aminopropanamido)-4-chloro-4″-sulfamoyl-[1, 1′:3′,1″-terphenyl]-5′-carboxamide] | – | 480 | – | 2.94 | 1960 | –
10 | CCCC(=O)Nc1c(C(N)=O)cc(-c2ccc(Cl)cc2)cc1-c1ccc(NC(N)=O)cc1 [HPN-01519, 4′-butyramido-4-chloro-4″-ureido-[1,1′:3′,1″-terphenyl]-5′-carboxamide] | 2.75 | 810 | 1510 | – | – | –
11 | NC(=O)Nc1ccc(-c2cc(-c3ccc(Cl)cc3)cc(C(N)=O)c2NC(=O)CCO)cc1 [HPN-01520, 4-chloro-4′-(3-hydroxypropanamido)-4″-ureido-[1,1′:3′,1″-terphenyl]-5′-carboxamide] | 4.45 | 2510 | 3010 | – | – | –
12 | NC(=O)c1cc(-c2ccc(Br)cc2)cc(-c2ccc(S(N)(=O)=O)cc2)c1NC(=O)C1CC1 [HPN-01525, 4-bromo-4′-(cyclopropanecarboxamido)-4″-sulfamoyl-[1,1′:3′,1″-terphenyl]-5′-carboxamide] | 10 | 1450 | 5610 | – | – | –
13 | NCCC(=O)Oc1c(C(N)=O)cc(-c2ccc(Br)cc2)cc1-c1ccc(NC(N)=O)cc1 [HPN-01526, 4-bromo-5′-carbamoyl-4″-ureido-[1,1′:3′,1″-terphenyl]-4′-yl 3-aminopropanoate] | 3.83 | 1150 | 1630 | – | – | –
14 | NCC(=O)Nc1c(C(N)=O)cc(-c2ccc(Br)cc2)cc1-c1ccc(S(N)(=O)=O)cc1 [HPN-01527, 4′-(2-aminoacetamido)-4-bromo-4″-sulfamoyl-[1,1′:3′,1″-terphenyl]-5′-carboxamide] | 5.69 | 2600 | 5250 | – | – | –
15 | NC(=O)c1cc(-c2ccc(Cl)cc2)cc(-c2ccc(S(N)(=O)=O)cc2)c1NC(=O)c1cccnc1 [HPN-01529, N-(5′-carbamoyl-4-chloro-4″-sulfamoyl-[1,1′:3′,1″-terphenyl]-4′-yl)nicotinamide] | 18.8 | 1670 | 3090 | – | – | –
16 | NCCC(=O)Nc1c(C(N)=O)cc(-c2ccc(Cl)cc2)cc1-c1ccc(S(N)(=O)=O)cc1 [HPN-01530, 4′-(3-aminopropanamido)-4-chloro-4″-sulfamoyl-[1,1′:3′,1″-terphenyl]-5′-carboxamide] | – | – | – | 9.4 | 3940 | 460

Row | Structure (SMILES) | EC50 (SREBP-2; Homo sapiens, Hepatocyte) [µM] | EC50 (Huh7 cells; [1]) [nM] | EC50 (SREBP-1; Homo sapiens, Hepatocyte) [nM] | EC50 (SREBP-2) [µM] | EC50 (SREBP-1) [nM] | EC50 (Huh7 cells; Huh7 cells) [nM]
17 | NC(=O)c1cc(-c2ccc(Cl)cc2)cc(-c2ccc(S(N)(=O)=O)cc2)c1NCCO [HPN-01531, 4-chloro-4′-((2-hydroxyethyl)amino)-4″-sulfamoyl-[1,1′:3′,1″-terphenyl]-5′-carboxamide] | 5.71 | 6480 | 3150 | – | – | –
18 | NC(=O)c1cc(-c2ccc(Cl)cc2)cc(-c2ccc(S(N)(=O)=O)cc2)c1NCc1cccc(Cl)c1 [HPN-01532, 4-chloro-4′-((3-chlorobenzyl)amino)-4″-sulfamoyl-[1,1′:3′,1″-terphenyl]-5′-carboxamide] | 8.6 | 1150 | 2690 | – | – | –
19 | CCCCNc1c(C(N)=O)cc(-c2ccc(Cl)cc2)cc1-c1ccc(S(N)(=O)=O)cc1 [HPN-01533, 4′-(butylamino)-4-chloro-4″-sulfamoyl-[1,1′:3′,1″-terphenyl]-5′-carboxamide] | 11.7 | 480 | 2830 | – | – | –
20 | NC(=O)c1cc(-c2ccc(Cl)cc2)cc(-c2ccc(S(N)(=O)=O)cc2)c1NCCc1ccccc1 [HPN-01534, 4-chloro-4′-(phenethylamino)-4″-sulfamoyl-[1,1′:3′,1″-terphenyl]-5′-carboxamide] | 6.79 | 1110 | 2920 | – | – | –
21 | CNC(=O)c1cc(-c2ccc(Br)cc2)cc(-c2ccc(S(N)(=O)=O)cc2)c1N [HPN-01602, 4′-amino-4-bromo-N-methyl-4″-sulfamoyl-[1,1′:3′,1″-terphenyl]-5′-carboxamide] | 4.73 | 2320 | 3320 | – | – | –
22 | CCCNC(=O)c1cc(-c2ccc(Cl)cc2)cc(-c2ccc(S(N)(=O)=O)cc2)c1N [HPN-01603, 4′-amino-4-chloro-N-propyl-4″-sulfamoyl-[1,1′:3′,1″-terphenyl]-5′-carboxamide] | 9.4 | 2390 | 7220 | – | – | –
23 | CCCNC(=O)c1cc(-c2ccc(Br)cc2)cc(-c2ccc(S(N)(=O)=O)cc2)c1N [HPN-01604, 4′-amino-4-bromo-N-propyl-4″-sulfamoyl-[1, 1′:3′,1″-terphenyl]-5′-carboxamide] | 5.71 | 1140 | 1950 | – | – | –
24 | Nc1c(C(=O)NC2CC2)cc(-c2ccc(Cl)cc2)cc1-c1ccc(S(N)(=O)=O)cc1 [HPN-01605, 4′-amino-4-chloro-N-cyclopropyl-4″-sulfamoyl-[1,1′:3′,1″-terphenyl]-5′-carboxamide] | 2.35 | 690 | 1780 | – | – | –
25 | Nc1c(C(=O)NC2CC2)cc(-c2ccc(Br)cc2)cc1-c1ccc(S(N)(=O)=O)cc1 [HPN-01606, 4′-amino-4-bromo-N-cyclopropyl-4″-sulfamoyl-[1,1′:3′,1″-terphenyl]-5′-carboxamide] | 2.75 | 140 | 1130 | – | – | –
26 | Nc1c(C(=O)NCCO)cc(-c2ccc(Cl)cc2)cc1-c1ccc(S(N)(=O)=O)cc1 [HPN-01607, 4′-amino-4-chloro-N-(2-hydroxyethyl)-4″-sulfamoyl-[1,1′:3′,1″-terphenyl]-5′-carboxamide] | 12.5 | 3050 | 6730 | – | – | –
27 | Nc1c(C(=O)NCCO)cc(-c2ccc(Br)cc2)cc1-c1ccc(S(N)(=O)=O)cc1 [HPN-01608, 4′-amino-4-bromo-N-(2-hydroxyethyl)-4″-sulfamoyl-[1,1′:3′,1″-terphenyl]-5′-carboxamide] | 4.31 | 1200 | 2390 | – | – | –
28 | NS(=O)(=O)c1ccc(-c2cc(-c3ccc(Br)cc3)cc3c(=O)[nH]c(=O)[nH]c23)cc1 [HPN-01610, 4-(6-(4-bromophenyl)-2,4-dioxo-1,2,3,4-tetrahydroquinazolin-8-yl)benzene sulfonamide] | 3.44 | 1160 | 2000 | – | – | –
29 | Nc1c(C(=O)Nc2ccccc2)cc(-c2ccc(Cl)cc2)cc1-c1ccc(S(N)(=O)=O)cc1 [HPN-01611, 4′-amino-4-chloro-N-phenyl-4″-sulfamoyl-[1,1′:3′,1″-terphenyl]-5′-carboxamide] | 2.24 | 790 | 1370 | – | – | –
30 | Nc1c(C(=O)Nc2ccccc2)cc(-c2ccc(Br)cc2)cc1-c1ccc(S(N)(=O)=O)cc1 [HPN-01612, 4′-amino-4-bromo-N-phenyl-4″-sulfamoyl-[1,1′:3′,1″-terphenyl]-5′-carboxamide] | 5.48 | 640 | 3110 | – | – | –
31 | Nc1c(C(=O)Nc2cccc(F)c2)cc(-c2ccc(Cl)cc2)cc1-c1ccc(S(N)(=O)=O)cc1 [HPN-01613, 4′-amino-4-chloro-N-(3-fluorophenyl)-4″-sulfamoyl-[1,1′:3′,1″-terphenyl]-5′-carboxamide] | 2.2 | 1370 | 1550 | – | – | –
